From patent US20020192821A1, “Increased functional activity and/or expression of ABC transporters protects against the loss of dopamine neurons associated with Parkinson's disease” (Active Pass Pharmaceuticals, Inc., priority 2001, published 2002)

Columns and labels:
ABCG4 transporter = target: T1, ABCG4 transporter (Homo sapiens, UniProt Q9H172); experiment: Dopamine-induced cytotoxicity (MTT assay) in hDAT cells transiently transfected with ABCG4, in the presence of ABC transporter inhibitors; format: cell-based; details: hDAT-SK-N-MC cells transfected with ABCG4, DA 50 μM for 24 hours, glipizide 250 μM or probenecid 500 μM added two hours prior to DA, FIG. 2
T1 construct: expressed in transfected cells; host or cells: hDAT-SK-N-MC (human neuroblastoma SK-N-MC stably expressing hDAT), transient transfection, pCEP4 or pcDNA3.1
T1 sequence (Q9H172 whole entry): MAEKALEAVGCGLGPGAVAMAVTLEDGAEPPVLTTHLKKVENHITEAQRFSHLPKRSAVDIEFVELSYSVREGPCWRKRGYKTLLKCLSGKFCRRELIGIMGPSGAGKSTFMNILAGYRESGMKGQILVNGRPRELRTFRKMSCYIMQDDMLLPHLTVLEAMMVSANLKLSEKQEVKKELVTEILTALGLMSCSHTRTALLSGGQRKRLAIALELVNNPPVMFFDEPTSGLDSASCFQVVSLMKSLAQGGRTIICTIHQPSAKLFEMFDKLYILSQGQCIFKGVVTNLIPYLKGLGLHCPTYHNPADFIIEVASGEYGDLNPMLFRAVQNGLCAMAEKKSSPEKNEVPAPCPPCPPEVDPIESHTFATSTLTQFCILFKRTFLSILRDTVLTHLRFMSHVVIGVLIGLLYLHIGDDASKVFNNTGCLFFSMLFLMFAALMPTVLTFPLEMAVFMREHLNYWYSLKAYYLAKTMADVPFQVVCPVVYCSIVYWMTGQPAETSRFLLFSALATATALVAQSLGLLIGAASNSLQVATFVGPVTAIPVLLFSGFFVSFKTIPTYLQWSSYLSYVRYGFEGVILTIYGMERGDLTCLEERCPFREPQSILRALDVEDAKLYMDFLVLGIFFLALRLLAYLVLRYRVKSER

ABCC5 transporter = ABCC5 transporter (Homo sapiens, UniProt O15440); details: hDAT-SK-N-MC cells transfected with ABCC5; DA 50 μM for 24 hours; glipizide 250 μM or probenecid 500 μM added two hours prior to DA; MTT; FIG. 2
ABCC5 transporter, sequence (O15440 whole entry): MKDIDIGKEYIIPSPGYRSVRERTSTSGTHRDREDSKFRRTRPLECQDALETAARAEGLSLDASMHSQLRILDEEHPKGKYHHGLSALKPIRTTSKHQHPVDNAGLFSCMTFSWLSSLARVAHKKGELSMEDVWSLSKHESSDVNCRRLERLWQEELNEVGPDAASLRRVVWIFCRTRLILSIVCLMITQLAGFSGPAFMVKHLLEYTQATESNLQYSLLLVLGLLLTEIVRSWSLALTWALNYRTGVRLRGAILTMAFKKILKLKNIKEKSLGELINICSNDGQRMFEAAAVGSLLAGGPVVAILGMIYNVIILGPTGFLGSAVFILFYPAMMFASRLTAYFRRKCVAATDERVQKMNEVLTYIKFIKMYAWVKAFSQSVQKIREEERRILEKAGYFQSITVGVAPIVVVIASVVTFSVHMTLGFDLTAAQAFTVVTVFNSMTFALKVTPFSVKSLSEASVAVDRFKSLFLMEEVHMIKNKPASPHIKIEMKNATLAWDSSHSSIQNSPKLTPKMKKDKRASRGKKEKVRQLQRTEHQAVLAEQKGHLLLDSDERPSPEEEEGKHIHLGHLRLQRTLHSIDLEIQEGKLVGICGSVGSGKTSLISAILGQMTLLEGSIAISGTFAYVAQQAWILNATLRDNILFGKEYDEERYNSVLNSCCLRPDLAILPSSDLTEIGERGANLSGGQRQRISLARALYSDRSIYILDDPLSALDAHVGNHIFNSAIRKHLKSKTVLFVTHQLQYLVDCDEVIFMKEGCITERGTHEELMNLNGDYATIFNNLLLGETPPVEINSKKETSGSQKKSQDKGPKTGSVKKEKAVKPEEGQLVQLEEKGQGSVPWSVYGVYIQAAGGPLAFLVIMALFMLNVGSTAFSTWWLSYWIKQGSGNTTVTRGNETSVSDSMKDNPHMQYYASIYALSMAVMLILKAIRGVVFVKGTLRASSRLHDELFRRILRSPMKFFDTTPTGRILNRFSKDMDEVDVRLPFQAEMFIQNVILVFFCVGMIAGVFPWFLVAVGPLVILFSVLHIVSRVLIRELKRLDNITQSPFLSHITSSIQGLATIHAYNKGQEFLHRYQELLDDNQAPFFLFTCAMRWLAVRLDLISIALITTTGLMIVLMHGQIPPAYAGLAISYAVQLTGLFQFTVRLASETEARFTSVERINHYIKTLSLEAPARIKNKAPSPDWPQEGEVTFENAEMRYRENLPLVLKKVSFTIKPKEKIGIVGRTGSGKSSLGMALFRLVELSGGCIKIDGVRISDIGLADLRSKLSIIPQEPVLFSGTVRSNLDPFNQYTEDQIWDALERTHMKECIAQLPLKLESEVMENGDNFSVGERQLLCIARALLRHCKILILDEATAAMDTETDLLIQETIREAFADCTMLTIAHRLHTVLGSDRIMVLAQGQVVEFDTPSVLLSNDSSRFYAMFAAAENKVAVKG

With `CCCN(CCC)S(=O)(=O)c1ccc(C(=O)O)cc1` [probenecid] the “effect on the protective effect of ABCG4 against dopamine-induced toxicity” value (ABCG4 transporter) was “reversed the protective effect” and the “effect on the protective effect of ABCC5 against dopamine-induced toxicity” value (ABCC5 transporter) was “reversed the protective effect”.
